Numbers after ± are expanded uncertainties.
Conditions: Liquid

Row | SMILES | vapor or sublimation pressure (253.15 K) [kPa] | vapor or sublimation pressure (263.15 K) [kPa] | vapor or sublimation pressure (273.15 K) [kPa] | vapor or sublimation pressure (283.15 K) [kPa] | vapor or sublimation pressure (293.15 K) [kPa] | vapor or sublimation pressure (303.15 K) [kPa] | vapor or sublimation pressure (313.15 K) [kPa] | vapor or sublimation pressure (323.15 K) [kPa]
1 | O=C=O [carbon dioxide] | 1964.8 ± 49 | 2641.8 ± 66 | 3478.5 ± 86 | 4497.8 ± 110 | 5723.7 ± 140 | 7206.2 ± 180 |  | 
2 | CCC [propane] | 244.2 ± 6.2 | 344.7 ± 8.7 | 473.9 ± 12 | 636.3 ± 16 | 836.3 ± 21 | 1079.6 ± 27 | 1369.8 ± 34 | 1714.5 ± 43
